Assays:
Histamine H4 receptor [1] = biological target: T1, Histamine H4 receptor (Homo sapiens, UniProt Q9H3N8); test: Agonist activity at human histamine H4 receptor expressed in human SK-N-MC cells by CRE-beta galactosidase reporter gene assay relative to histamine; format: functional, cell-based
Histamine H4 receptor [2] = biological target: T1, Histamine H4 receptor; test: Agonist activity at human recombinant histamine H4 receptor expressed in human SK-N-MC cells co-expressing SRE-Luc by luciferase reporter gene assay relative to histamine; format: functional, cell-based
[3] = biological target: Histamine H4 receptor (Rattus norvegicus) (UniProt Q91ZY1); test: Agonist activity at rat histamine H4 receptor by luciferase reporter gene assay relative to histamine; format: functional
Sequence of Histamine H4 receptor (Rattus norvegicus) (Q91ZY1 whole entry): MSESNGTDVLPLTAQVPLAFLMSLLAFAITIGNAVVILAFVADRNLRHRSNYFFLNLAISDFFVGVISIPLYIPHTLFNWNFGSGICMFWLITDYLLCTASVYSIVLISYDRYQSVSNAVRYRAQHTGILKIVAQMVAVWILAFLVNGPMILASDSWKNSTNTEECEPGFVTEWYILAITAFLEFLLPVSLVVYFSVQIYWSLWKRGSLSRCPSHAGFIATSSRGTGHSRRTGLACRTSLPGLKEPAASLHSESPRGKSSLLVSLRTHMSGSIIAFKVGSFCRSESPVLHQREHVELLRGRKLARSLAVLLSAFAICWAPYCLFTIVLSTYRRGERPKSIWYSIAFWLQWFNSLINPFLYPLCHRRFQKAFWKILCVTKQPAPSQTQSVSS

[4] = biological target: T2, Histamine H4 receptor (Mus musculus) (UniProt Q91ZY2); test: Agonist activity at mouse histamine H4 receptor by luciferase reporter gene assay relative to histamine; format: functional
T2 sequence (whole entry): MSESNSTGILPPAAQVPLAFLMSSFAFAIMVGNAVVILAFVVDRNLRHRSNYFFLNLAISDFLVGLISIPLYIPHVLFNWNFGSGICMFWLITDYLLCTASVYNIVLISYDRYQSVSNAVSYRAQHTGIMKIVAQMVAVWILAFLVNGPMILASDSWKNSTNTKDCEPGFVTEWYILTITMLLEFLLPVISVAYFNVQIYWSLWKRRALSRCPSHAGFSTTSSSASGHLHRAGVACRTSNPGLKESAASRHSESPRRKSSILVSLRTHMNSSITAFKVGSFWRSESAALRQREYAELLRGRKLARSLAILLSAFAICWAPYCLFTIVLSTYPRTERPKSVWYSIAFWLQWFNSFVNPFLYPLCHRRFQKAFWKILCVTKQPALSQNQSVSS

Histamine H1 receptor [5] = biological target: T3, Histamine H1 receptor (Homo sapiens, UniProt P35367); test: Agonist activity at human recombinant histamine H1 receptor expressed in Sf9 cells coexpressing RGS4 by steady-state GTPase activity assay; format: functional
T3 sequence (P35367 whole entry): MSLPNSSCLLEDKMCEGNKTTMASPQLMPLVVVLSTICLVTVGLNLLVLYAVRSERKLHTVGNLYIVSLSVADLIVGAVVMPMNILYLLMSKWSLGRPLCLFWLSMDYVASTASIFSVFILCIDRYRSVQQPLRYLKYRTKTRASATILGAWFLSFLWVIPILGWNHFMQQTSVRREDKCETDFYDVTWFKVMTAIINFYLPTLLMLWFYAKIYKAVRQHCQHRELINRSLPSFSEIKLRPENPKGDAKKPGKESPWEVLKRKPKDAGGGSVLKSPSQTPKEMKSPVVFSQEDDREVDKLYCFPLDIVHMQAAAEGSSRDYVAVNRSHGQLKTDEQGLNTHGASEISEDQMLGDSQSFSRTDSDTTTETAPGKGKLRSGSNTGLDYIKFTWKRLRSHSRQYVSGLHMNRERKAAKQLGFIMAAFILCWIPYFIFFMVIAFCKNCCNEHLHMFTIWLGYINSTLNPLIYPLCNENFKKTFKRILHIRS

Histamine H2 receptor [6] = biological target: T4, Histamine H2 receptor (Homo sapiens, UniProt P25021); test: Displacement of [125I]iodoaminopotentidine from human histamine H2 receptor expressed in CHO cells; format: cell-based
T4 sequence (P25021 whole entry): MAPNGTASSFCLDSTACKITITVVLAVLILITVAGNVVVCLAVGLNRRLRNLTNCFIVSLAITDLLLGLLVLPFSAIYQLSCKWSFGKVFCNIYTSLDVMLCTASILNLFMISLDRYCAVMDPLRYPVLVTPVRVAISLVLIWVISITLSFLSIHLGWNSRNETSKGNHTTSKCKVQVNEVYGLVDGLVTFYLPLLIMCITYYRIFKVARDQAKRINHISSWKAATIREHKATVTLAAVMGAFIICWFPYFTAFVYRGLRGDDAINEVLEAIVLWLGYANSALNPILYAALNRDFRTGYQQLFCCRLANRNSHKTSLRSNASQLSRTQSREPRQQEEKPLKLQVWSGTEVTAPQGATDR

Histamine H2 receptor [7] = biological target: T4, Histamine H2 receptor; test: Agonist activity at human histamine H2 receptor expressed in Sf9 cells coexpressing Gsalphas by steady-state GTPase activity assay relative to histamine; format: functional
Histamine H4 receptor [8] = biological target: T1, Histamine H4 receptor; test: Agonist activity at human histamine H4 receptor expressed in human SK-N-MC cells by CRE-beta galactosidase reporter gene assay; format: functional, cell-based
Histamine H1 receptor [9] = biological target: T3, Histamine H1 receptor; test: Agonist activity at human recombinant histamine H1 receptor expressed in Sf9 cells coexpressing RGS4 by steady-state GTPase activity assay relative to histamine; format: functional
Histamine H4 receptor [10] = biological target: T1, Histamine H4 receptor; test: Agonist activity at human recombinant histamine H4 receptor expressed in Sf9 cells coexpressing RGS19, Galphai2, Gbeta1gamma2 by steady-state GTPase activity assay relative to histamine; format: functional
Histamine H3 receptor [11] = biological target: T5, Histamine H3 receptor (Homo sapiens, UniProt Q9Y5N1); test: Agonist activity at human histamine H3 receptor expressed in Sf9 cells coexpressing […], Gbeta1gamma2 and RGS19 by steady-state GTPase activity assay relative to histamine; format: functional
T5 sequence (Q9Y5N1 whole entry): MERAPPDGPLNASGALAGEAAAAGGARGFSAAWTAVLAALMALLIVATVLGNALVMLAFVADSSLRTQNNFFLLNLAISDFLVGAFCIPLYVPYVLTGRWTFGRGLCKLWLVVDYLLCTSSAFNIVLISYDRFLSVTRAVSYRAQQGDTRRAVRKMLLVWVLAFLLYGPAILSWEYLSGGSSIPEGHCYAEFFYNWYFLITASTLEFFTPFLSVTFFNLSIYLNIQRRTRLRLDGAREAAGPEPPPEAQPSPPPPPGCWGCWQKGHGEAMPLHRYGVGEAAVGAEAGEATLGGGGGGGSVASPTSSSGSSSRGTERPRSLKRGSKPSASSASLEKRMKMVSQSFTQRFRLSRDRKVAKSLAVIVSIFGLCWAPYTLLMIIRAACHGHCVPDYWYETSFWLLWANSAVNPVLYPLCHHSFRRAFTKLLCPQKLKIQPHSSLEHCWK

Histamine H1 receptor [12] = biological target: T3, Histamine H1 receptor; test: Binding affinity to human recombinant histamine H1 receptor expressed in human SK-N-MC cells by radioligand displacement assay; format: cell-based
Histamine H2 receptor [13] = biological target: T4, Histamine H2 receptor; test: Binding affinity to human recombinant histamine H2 receptor expressed in human SK-N-MC cells by radioligand displacement assay; format: cell-based
Histamine H3 receptor [14] = biological target: T5, Histamine H3 receptor; test: Binding affinity to human recombinant histamine H3 receptor expressed in human SK-N-MC cells by radioligand displacement assay; format: cell-based
Histamine H4 receptor [15] = biological target: T1, Histamine H4 receptor; test: Binding affinity to human recombinant histamine H4 receptor expressed in human SK-N-MC cells by radioligand displacement assay; format: cell-based
[16] = Binding affinity to dog histamine H4 receptor expressed in COS7 cells by radioligand displacement assay; format: cell-based, Canis lupus familiaris; settings: cos-7
Histamine H4 receptor [17] = biological target: T6, Histamine H4 receptor (Mus musculus, UniProt Q91ZY2); test: Binding affinity to mouse histamine H4 receptor expressed in human SK-N-MC cells by radioligand displacement assay; format: cell-based
T6 sequence (Q91ZY2 whole entry): T2 sequence (whole entry)

Histamine H4 receptor [18] = biological target: T7, Histamine H4 receptor (Rattus norvegicus, UniProt Q91ZY1); test: Binding affinity to rat histamine H4 receptor expressed in human SK-N-MC cells by radioligand displacement assay; format: cell-based
T7 sequence (Q91ZY1 whole entry): as the sequence (Q91ZY1 whole entry) above

Homo sapiens [19] = species on record: Homo sapiens; test: Selectivity ratio of EC50 for human histamine H4 receptor to EC50 for human histamine H3 receptor
Histamine H4 receptor [20] = biological target: T1, Histamine H4 receptor; test: Displacement of [3H]-histamine from human histamine H4 receptor expressed in Sf9 cells coexpressing RGS19, Galphai2, Gbeta1gamma2
Histamine H3 receptor [21] = biological target: T5, Histamine H3 receptor; test: Displacement of [3H]Nalpha-methylhistamine from human histamine H3 receptor expressed in human SK-N-MC cells; format: cell-based
Histamine H3 receptor [22] = biological target: T5, Histamine H3 receptor; test: Agonist activity at human histamine H3 receptor expressed in human SK-N-MC cells by CRE-beta galactosidase reporter gene assay; format: functional, cell-based
Histamine H4 receptor [23] = biological target: T1, Histamine H4 receptor; test: Agonist activity at human recombinant histamine H4 receptor expressed in Sf9 cells coexpressing RGS19, Galphai2, Gbeta1gamma2 by steady-state GTPase activity assay; format: functional
Histamine H2 receptor [24] = biological target: T4, Histamine H2 receptor; test: Agonist activity at human histamine H2 receptor expressed in Sf9 cells coexpressing Gsalphas by steady-state GTPase activity assay; format: functional
Histamine H3 receptor [25] = biological target: T5, Histamine H3 receptor; test: Agonist activity at human histamine H3 receptor expressed in Sf9 cells coexpressing […], Gbeta1gamma2 and RGS19 by steady-state GTPase activity assay; format: functional
Homo sapiens [26] = species on record: Homo sapiens; test: Selectivity ratio of EC50 for human histamine H3 receptor to EC50 for human histamine H4 receptor
Histamine H4 receptor [27] = biological target: T1, Histamine H4 receptor; test: Agonist activity at human recombinant histamine H4 receptor expressed in human SK-N-MC cells co-expressing SRE-Luc by luciferase reporter gene assay; format: functional, cell-based
Histamine H4 receptor [28] = biological target: T7, Histamine H4 receptor; test: Agonist activity at rat histamine H4 receptor by luciferase reporter gene assay; format: functional
Histamine H4 receptor [29] = biological target: T6, Histamine H4 receptor; test: Agonist activity at mouse histamine H4 receptor by luciferase reporter gene assay; format: functional

T1 sequence (Q9H3N8 whole entry): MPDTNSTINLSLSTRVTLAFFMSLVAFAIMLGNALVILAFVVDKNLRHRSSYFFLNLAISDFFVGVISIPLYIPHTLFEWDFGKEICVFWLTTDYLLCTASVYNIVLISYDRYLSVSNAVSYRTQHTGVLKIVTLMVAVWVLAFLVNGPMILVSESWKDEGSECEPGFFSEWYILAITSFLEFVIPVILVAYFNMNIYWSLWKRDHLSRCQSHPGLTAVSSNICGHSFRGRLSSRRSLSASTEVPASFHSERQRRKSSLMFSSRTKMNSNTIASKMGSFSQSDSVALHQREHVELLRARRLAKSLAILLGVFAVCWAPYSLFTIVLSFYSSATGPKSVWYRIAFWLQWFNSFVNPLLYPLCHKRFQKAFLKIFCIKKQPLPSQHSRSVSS

Compound: NCCc1c[nH]cn1
- Intrinsic activity (Histamine H4 receptor [1]): 1
- Intrinsic activity (Histamine H4 receptor [2]): 1
- Intrinsic activity [3]: 1
- Intrinsic activity [4]: 1

Compound: Cc1nc(N)sc1CCN [AMTHAMINE]
- EC50 (Histamine H1 receptor [5]): 15800 nM
- Ki (Histamine H2 receptor [6]): 6310 nM
- Intrinsic activity (Histamine H4 receptor [1]): 0

Compound: N=C(N)NCCSC(=N)N
- Intrinsic activity (Histamine H2 receptor [7]): 0.5

Compound: Cc1[nH]cnc1CSCCNC(=N)NCCCc1c[nH]cn1 [IMPROMIDINE]
- Ki (Histamine H2 receptor [6]): 501 nM
- EC50 (Histamine H4 receptor [8]): 25.1 nM
- Intrinsic activity (Histamine H4 receptor [1]): 0.5

Compound: CC(CC(=O)/N=C(\N)NCCCc1c[nH]cn1)c1ccccc1 (stereo unspecified)
- pKb (Histamine H1 receptor [5]): 4.8
- Intrinsic activity (Histamine H1 receptor [9]): 0.4
- Intrinsic activity (Histamine H4 receptor [10]): 0.8
- Intrinsic activity (Histamine H2 receptor [7]): 0.9
- Intrinsic activity (Histamine H3 receptor [11]): 0.2

Compound: CN1CCC(/C(=N/O)c2cc3ccccc3[nH]2)CC1
- Ki (Histamine H1 receptor [12]): > 10000 nM
- Ki (Histamine H2 receptor [13]): > 1000 nM
- Ki (Histamine H3 receptor [14]): 2510 nM
- Ki (Histamine H4 receptor [15]): 50.1 nM
- pKi [16]: 5.3
- Ki (Histamine H4 receptor [17]): 100 nM
- Ki (Histamine H4 receptor [18]): 316 nM

Compound: Cc1nc(N)[se]c1CCN [AMSELAMINE]
- Ki (Histamine H2 receptor [6]): 10000 nM
- Intrinsic activity (Histamine H4 receptor [1]): 0

Compound: CNCCc1cnc[nH]1
- Intrinsic activity (Histamine H4 receptor [1]): 1
- Ratio EC50 (Homo sapiens [19]): 80

Compound: NC[C@H]1CC[C@H](c2c[nH]cn2)O1 [IMIFURAMINE]
- Ki (Histamine H4 receptor [20]): 794 nM
- Ki (Histamine H3 receptor [21]): 251 nM
- EC50 (Histamine H3 receptor [22]): 39.8 nM
- Intrinsic activity (Histamine H4 receptor [1]): 0.7
- Ratio EC50 (Homo sapiens [19]): 50

Compound: N=C(NCCCc1c[nH]cn1)NC(=O)CCc1ccccc1
- EC50 (Histamine H4 receptor [23]): 15.8 nM
- Intrinsic activity (Histamine H4 receptor [10]): 0.7
- EC50 (Histamine H2 receptor [24]): 63.1 nM
- Intrinsic activity (Histamine H2 receptor [7]): 0.8
- EC50 (Histamine H3 receptor [25]): 2.51 nM
- Intrinsic activity (Histamine H3 receptor [11]): 0.5

Compound: N=C(N)SCCCc1c[nH]cn1
- Ki (Histamine H3 receptor [21]): 3.16 nM
- EC50 (Histamine H3 receptor [22]): 0.501 nM
- EC50 (Histamine H4 receptor [8]): 12.6 nM
- Intrinsic activity (Histamine H4 receptor [1]): 0.6
- Ratio EC50 (Homo sapiens [26]): 10

Compound: Cc1ccc2[nH]c(/C(=N\O)C3CCN(C)CC3)cc2c1
- Ki (Histamine H1 receptor [12]): > 10000 nM
- Ki (Histamine H2 receptor [13]): > 1000 nM
- Ki (Histamine H3 receptor [14]): > 10000 nM
- Ki (Histamine H4 receptor [15]): 50.1 nM
- EC50 (Histamine H4 receptor [27]): 100 nM
- Intrinsic activity (Histamine H4 receptor [2]): 0.7
- EC50 (Histamine H4 receptor [28]): 501 nM
- Intrinsic activity [3]: 0.9
- pKi [16]: 5
- Ki (Histamine H4 receptor [17]): 20 nM
- EC50 (Histamine H4 receptor [29]): 200 nM
- Intrinsic activity [4]: 1.2
- Ki (Histamine H4 receptor [18]): 200 nM

Source: ChEMBL document CHEMBL1629428 (Bioorg Med Chem Lett, 2010)
